Laboratory results from US10175256B2, “Compositions and methods utilizing lysophosphatidylcholine scaffolds” (National University Of Singapore, priority 2013, dated 2019).
Where “and” joins values, the source holds several entries; their conditions need not be identical. Identical values can stand only once.

Test system: mouse Mfsd2a
Assay: Cell-based free fatty acid transport/uptake in Mfsd2a expressing HEK293 cells (mass spectrometry, TLC; Table 1)
Details: mock HEK293 cells, 100 uM fatty acid/BSA overnight
In short: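 HEK293 cells expressing mouse Mfsd2a, or mock controls, were incubated overnight with 100 μM BSA-complexed fatty acids. Lipids were extracted in hexane:isopropanol (3:2) and phospholipid species quantified by HPLC-MS/MS against spiked internal standards. For TLC, cells received 100 μM [^14C]-oleate overnight, and phospholipids and neutral lipids were resolved.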

## CCCCCCCCCCCCCCCC(=O)O [Palmitic acid]
  % DHA in PC + lysoPC: 0.04025% and 0.03837% and 0.03939%
  % DHA in PE + lysoPE: 10.87% and 12.13% and 11.44%
  % DHA in PI and lysoPI: 0.01445% and 0.01615% and 0.01441%
  % DHA in PS: 0.1091% and 0.1184% and 0.1391%
  LPI16:0 in total phospholipid: 0.004053 mol percent and 0.002611 mol percent and 0.002621 mol percent
  LPI18:0 in total phospholipid: 0.0326 mol percent and 0.02611 mol percent and 0.03227 mol percent
  LPI20:4 in total phospholipid: 0.002114 mol percent and 0.002121 mol percent and 0.002948 mol percent
  LPI22:6 in total phospholipid: 0.009339 mol percent and 0.008648 mol percent and 0.007698 mol percent
  Lyso PE16:0p in total phospholipid: 2.649 mol percent and 2.594 mol percent and 2.175 mol percent
  Lyso PE18:0p in total phospholipid: 0.4161 mol percent and 0.4127 mol percent and 0.4189 mol percent
  Lyso PE18:1p in total phospholipid: 0.2081 mol percent and 0.1327 mol percent and 0.1216 mol percent
  Lyso PE20:0p in total phospholipid: 0.1803 mol percent and 0.2801 mol percent and 0.1892 mol percent
  LysoPC16:0e in total phospholipid: 0.003391 mol percent and 0.004221 mol percent and 0.003565 mol percent
  LysoPC16:0 in total phospholipid: 0.02383 mol percent and 0.02127 mol percent and 0.02008 mol percent
  LysoPC16:1 in total phospholipid: 0.006406 mol percent and 0.00591 mol percent and 0.006781 mol percent
  LysoPC18:0e in total phospholipid: 0.002449 mol percent and 0.002111 mol percent and 0.001826 mol percent
  LysoPC18:0 in total phospholipid: 0.0065 mol percent and 0.007261 mol percent and 0.008694 mol percent
  LysoPC18:1 in total phospholipid: 0.01564 mol percent and 0.01503 mol percent and 0.01617 mol percent
  LysoPC18:2 in total phospholipid: 0.00179 mol percent and 0.001266 mol percent and 0.001826 mol percent
  LysoPC20:4 in total phospholipid: 0.000565 mol percent and 0.000507 mol percent and 0.000435 mol percent
  LysoPC22:5 in total phospholipid: 0.000565 mol percent and 0.000507 mol percent and 0.000609 mol percent
  LysoPE16:1 in total phospholipid: 0.1387 mol percent and 0.1179 mol percent and 0.1351 mol percent
  LysoPE18:0 in total phospholipid: 0.1248 mol percent and 0.1327 mol percent and 0.06756 mol percent
  LysoPE18:1 in total phospholipid: 0.06936 mol percent and 0.1032 mol percent and 0.1081 mol percent
  PC32:0e in total phospholipid: 1.801 mol percent and 1.766 mol percent and 1.854 mol percent
  PC32:0 in total phospholipid: 2.545 mol percent and 2.525 mol percent and 2.567 mol percent
  PC32:1e in total phospholipid: 2.44 mol percent and 2.388 mol percent and 2.446 mol percent
  PC32:1 in total phospholipid: 9.659 mol percent and 9.461 mol percent and 9.558 mol percent
  PC32:2 in total phospholipid: 1.526 mol percent and 1.443 mol percent and 1.528 mol percent
  PC34:1e in total phospholipid: 4.963 mol percent and 4.847 mol percent and 4.905 mol percent
  PC34:1 in total phospholipid: 19.9344 mol percent and 19.96 mol percent and 20.13 mol percent
  PC34:2e in total phospholipid: 1.578 mol percent and 1.538 mol percent and 1.559 mol percent
  PC34:2 in total phospholipid: 6.328 mol percent and 6.182 mol percent and 6.318 mol percent
  PC34:3e in total phospholipid: 0.2382 mol percent and 0.2269 mol percent and 0.2367 mol percent
  PC34:3 in total phospholipid: 0.6391 mol percent and 0.6013 mol percent and 0.6247 mol percent
  PC36:1e in total phospholipid: 1.472 mol percent and 1.429 mol percent and 1.48 mol percent
  PC36:1 in total phospholipid: 2.714 mol percent and 2.676 mol percent and 2.731 mol percent
  PC36:2e in total phospholipid: 1.667 mol percent and 1.629 mol percent and 1.643 mol percent
  PC36:2 in total phospholipid: 5.976 mol percent and 5.824 mol percent and 5.922 mol percent
  PC36:3e in total phospholipid: 0.8048 mol percent and 0.7841 mol percent and 0.7962 mol percent
  PC36:3 in total phospholipid: 1.196 mol percent and 1.137 mol percent and 1.173 mol percent
  PC36:4e in total phospholipid: 0.4288 mol percent and 0.4113 mol percent and 0.4345 mol percent
  PC36:4 in total phospholipid: 0.338 mol percent and 0.3342 mol percent and 0.3346 mol percent
  PC36:5e in total phospholipid: 0.345 mol percent and 0.3295 mol percent and 0.3467 mol percent
  PC36:5 in total phospholipid: 0.06048 mol percent and 0.05513 mol percent and 0.06303 mol percent
  PC36:6 in total phospholipid: 0.04691 mol percent and 0.05294 mol percent and 0.05486 mol percent
  PC38:1e in total phospholipid: 0.3684 mol percent and 0.3499 mol percent and 0.3643 mol percent
  PC38:3e in total phospholipid: 0.4177 mol percent and 0.3847 mol percent and 0.3977 mol percent
  PC38:3 in total phospholipid: 0.5512 mol percent and 0.5341 mol percent and 0.5477 mol percent
  PC38:4e in total phospholipid: 0.4224 mol percent and 0.3985 mol percent and 0.4045 mol percent
  PC38:4 in total phospholipid: 0.4716 mol percent and 0.4393 mol percent and 0.4567 mol percent
  PC38:5e in total phospholipid: 0.3578 mol percent and 0.3449 mol percent and 0.3552 mol percent
  PC38:5 in total phospholipid: 0.2477 mol percent and 0.2424 mol percent and 0.2561 mol percent
  PC38:6 in total phospholipid: 0.174 mol percent and 0.1785 mol percent and 0.1847 mol percent
  PC38:7 in total phospholipid: 0.1181 mol percent and 0.1149 mol percent and 0.1218 mol percent
  PC40:1e in total phospholipid: 0.1903 mol percent and 0.1874 mol percent and 0.1969 mol percent
  PC40:2e in total phospholipid: 0.2001 mol percent and 0.2004 mol percent and 0.2061 mol percent
  PC40:3e in total phospholipid: 0.1401 mol percent and 0.1387 mol percent and 0.1449 mol percent
  PC40:4e in total phospholipid: 0.1234 mol percent and 0.1193 mol percent and 0.1297 mol percent
  PC40:5e in total phospholipid: 0.1139 mol percent and 0.1153 mol percent and 0.1197 mol percent
  PC40:5 in total phospholipid: 0.09044 mol percent and 0.0835 mol percent and 0.08903 mol percent
  PC40:6 in total phospholipid: 0.1315 mol percent and 0.1248 mol percent and 0.1282 mol percent
  PC40:7 in total phospholipid: 0.1778 mol percent and 0.1711 mol percent and 0.1768 mol percent
  PE32:1 in total phospholipid: 0.3976 mol percent and 0.2948 mol percent and 0.3603 mol percent
  PE32:2 in total phospholipid: 0.111 mol percent and 0.1474 mol percent and 0.08107 mol percent
  PE34:0 in total phospholipid: 0.1665 mol percent and 0.1867 mol percent and 0.1531 mol percent
  PE34:1 in total phospholipid: 1.137 mol percent and 1.327 mol percent and 1.144 mol percent
  PE34:2 in total phospholipid: 0.7398 mol percent and 0.9433 mol percent and 0.7927 mol percent
  PE34p:1 in total phospholipid: 0.971 mol percent and 1.042 mol percent and 0.8107 mol percent
  PE34p:2 in total phospholipid: 0.2589 mol percent and 0.2653 mol percent and 0.2702 mol percent
  PE36:1 in total phospholipid: 1.322 mol percent and 1.425 mol percent and 1.18 mol percent
  PE36:2 in total phospholipid: 1.822 mol percent and 1.936 mol percent and 1.702 mol percent
  PE36:3 in total phospholipid: 0.4809 mol percent and 0.3636 mol percent and 0.4143 mol percent
  PE36:4 in total phospholipid: 0.2219 mol percent and 0.2555 mol percent and 0.1711 mol percent
  PE36p:1 in total phospholipid: 0.4994 mol percent and 0.3931 mol percent and 0.3603 mol percent
  PE36p:2 in total phospholipid: 0.4531 mol percent and 0.5896 mol percent and 0.6485 mol percent
  PE36p:3 in total phospholipid: 0.7305 mol percent and 0.7272 mol percent and 0.9548 mol percent
  PE36p:4 in total phospholipid: 0.9617 mol percent and 0.9433 mol percent and 0.9458 mol percent
  PE38:1 in total phospholipid: 0.3791 mol percent and 0.3046 mol percent and 0.3063 mol percent
  PE38:2 in total phospholipid: 0.2589 mol percent and 0.2555 mol percent and 0.3423 mol percent
  PE38:3 in total phospholipid: 0.6381 mol percent and 0.7959 mol percent and 0.5495 mol percent
  PE38:4 in total phospholipid: 0.8693 mol percent and 0.9237 mol percent and 0.8647 mol percent
  PE38:5 in total phospholipid: 0.3791 mol percent and 0.5405 mol percent and 0.4684 mol percent
  PE38:6 in total phospholipid: 0.1665 mol percent and 0.1376 mol percent and 0.1531 mol percent
  PE38p:0 in total phospholipid: 0.05548 mol percent and 0.08844 mol percent and 0.09008 mol percent
  PE38p:1 in total phospholipid: 0.2034 mol percent and 0.226 mol percent and 0.2432 mol percent
  PE38p:2 in total phospholipid: 0.2312 mol percent and 0.2948 mol percent and 0.3423 mol percent
  PE38p:3 in total phospholipid: 0.7768 mol percent and 0.8352 mol percent and 0.7656 mol percent
  PE38p:4 in total phospholipid: 1.036 mol percent and 0.8549 mol percent and 0.9998 mol percent
  PE38p:5 in total phospholipid: 0.6381 mol percent and 0.7272 mol percent and 0.7026 mol percent
  PE38p:6 in total phospholipid: 0.971 mol percent and 1.238 mol percent and 1.108 mol percent
  PE40:3 in total phospholipid: 0.1202 mol percent and 0.1179 mol percent and 0.1621 mol percent
  PE40:5 in total phospholipid: 0.1572 mol percent and 0.1376 mol percent and 0.2432 mol percent
  PE40:6 in total phospholipid: 0.3052 mol percent and 0.3832 mol percent and 0.2702 mol percent
  PE40p:4 in total phospholipid: 0.2959 mol percent and 0.2162 mol percent and 0.2973 mol percent
  PE40p:5 in total phospholipid: 0.2312 mol percent and 0.285 mol percent and 0.3153 mol percent
  PE40p:6 in total phospholipid: 0.5271 mol percent and 0.7272 mol percent and 0.6485 mol percent
  PE42p:4 in total phospholipid: 0.07398 mol percent and 0.05896 mol percent and 0.08107 mol percent
  PE42p:6 in total phospholipid: 0.1572 mol percent and 0.167 mol percent and 0.1441 mol percent
  PE42p:7 in total phospholipid: 0.1942 mol percent and 0.1277 mol percent and 0.1621 mol percent
  PI 32:1 in total phospholipid: 0.01674 mol percent and 0.0186 mol percent and 0.01785 mol percent
  PI 32:2 in total phospholipid: 0.001586 mol percent and 0.001469 mol percent and 0.001965 mol percent
  PI 34:1 in total phospholipid: 0.1071 mol percent and 0.1227 mol percent and 0.1299 mol percent
  PI 34:2 in total phospholipid: 0.06502 mol percent and 0.06038 mol percent and 0.07305 mol percent
  PI 36:1 in total phospholipid: 0.1544 mol percent and 0.1643 mol percent and 0.1769 mol percent
  PI 36:2 in total phospholipid: 0.3593 mol percent and 0.3719 mol percent and 0.3898 mol percent
  PI 36:3 in total phospholipid: 0.1695 mol percent and 0.1663 mol percent and 0.1785 mol percent
  PI 36:4 in total phospholipid: 0.04176 mol percent and 0.03965 mol percent and 0.0416 mol percent
  PI 38:2 in total phospholipid: 0.3441 mol percent and 0.3474 mol percent and 0.3631 mol percent
  PI 38:3 in total phospholipid: 0.9296 mol percent and 0.9911 mol percent and 1.026 mol percent
  PI 38:4 in total phospholipid: 0.3635 mol percent and 0.3967 mol percent and 0.3998 mol percent
  PI 38:5 in total phospholipid: 0.05392 mol percent and 0.0483 mol percent and 0.04815 mol percent
  PI 38:6 in total phospholipid: 0.0074 mol percent and 0.009628 mol percent and 0.007698 mol percent
  PI 40:3 in total phospholipid: 0.02555 mol percent and 0.02627 mol percent and 0.02801 mol percent
  PI 40:4 in total phospholipid: 0.01515 mol percent and 0.01599 mol percent and 0.01196 mol percent
  PI 40:5 in total phospholipid: 0.004934 mol percent and 0.004895 mol percent and 0.009172 mol percent
  PI 40:6 in total phospholipid: 0.007048 mol percent and 0.006527 mol percent and 0.006715 mol percent
  PS(sum) in total phospholipid: 3.034 mol percent and 2.842 mol percent and 3.239 mol percent
  PS:34:1 in total phospholipid: 0.4968 mol percent and 0.4486 mol percent and 0.5434 mol percent
  PS:34:2 in total phospholipid: 0.04738 mol percent and 0.04492 mol percent and 0.04867 mol percent
  PS:36:1 in total phospholipid: 1.269 mol percent and 1.209 mol percent and 1.375 mol percent
  PS:36:2 in total phospholipid: 0.4595 mol percent and 0.4148 mol percent and 0.4611 mol percent
  PS:36:3 in total phospholipid: 0.02585 mol percent and 0.02217 mol percent and 0.0262 mol percent
  PS:36:4 in total phospholipid: 0.00359 mol percent and 0.006418 mol percent and 0.006239 mol percent
  PS:38:2 in total phospholipid: 0.2312 mol percent and 0.2147 mol percent and 0.2602 mol percent
  PS:38:3 in total phospholipid: 0.1522 mol percent and 0.1447 mol percent and 0.1566 mol percent
  PS:38:4 in total phospholipid: 0.07467 mol percent and 0.08168 mol percent and 0.07674 mol percent
  PS:40:4 in total phospholipid: 0.08328 mol percent and 0.06359 mol percent and 0.073 mol percent
  PS:40:5 in total phospholipid: 0.06605 mol percent and 0.06534 mol percent and 0.05865 mol percent
  PS:40:6 in total phospholipid: 0.09836 mol percent and 0.1038 mol percent and 0.1248 mol percent
  PS:40:7 in total phospholipid: 0.01077 mol percent and 0.01459 mol percent and 0.01435 mol percent
  Total PC + lysoPC in total phospholipid: 71.06 mol percent and 69.79 mol percent and 71.05 mol percent
  Total PE + lysoPE in total phospholipid: 23.19 mol percent and 24.54 mol percent and 22.75 mol percent
  Total PI + lysoPI in total phospholipid: 2.715 mol percent and 2.832 mol percent and 2.956 mol percent
